# Counter-ions that a name gives are not always drawn.
# Tests used:
# MRSA = experiment: Inhibition of MRSA biofilm formation (crystal violet); assay type: cell-based, Staphylococcus aureus; settings: Staphylococcus aureus
# Experimental: A dose-response study was then initiated in which both the IC50 and EC50 value of each compound towards the bacterial strains were determined (Table 1). Here, IC50 is defined as the concentration of compound that inhibits 50% biofilm development while EC50 is defined as the concentration of compound that disperses 50% of a pre-formed biofilm.
# Procedure to Determine the Inhibitory Effect of Test Compounds on E. faecium, MRSA, S. epidermidis, PAO1 and MDRAB Biofilm Formation:
# (§1) Inhibition assays were performed by taking an overnight culture of bacterial strain and subculturing it at an OD600 of 0.01 into the necessary media (brain heart infusion for E. faecium, tryptic soy broth with a 0.5% glucose supplement (TSBG) for MRSA, Luria-Bertani (LB) media for MDRAB, Luria-Bertani media without NaCl (LBNS) for PAO1 and tryptic soy broth with a 0.5% glucose supplement and a 3.0% NaCl supplement (TGN) for S. epidermidis. Stock solutions of predetermined concentrations of the test compound were then made in the necessary media. These stock solutions were aliquoted (100 μL) into the wells of the 96-well PVC microtiter plate. Sample plates were then wrapped in GLAD Press n′ Seal® followed by an incubation under stationary conditions for 24 h at 37° C. After incubation, the media was discarded from the wells and the plates were washed thoroughly with water. Plates were then stained with 100 μL of 0.1% solution of crystal violet (CV) and then incubated at ambient temperature for 30 min. Plates were washed with water again and the remaining stain was solubilized with 200 μL of 95% ethanol. A sample of 125 μL of solubilized CV stain from each well was transferred to the corresponding wells of a polystyrene microtiter dish. Biofilm inhibition was quantitated by measuring the OD540 of each well in which a negative control lane wherein no biofilm was formed served as a background and was subtracted out.
# as §1, with “2-(2-amino-1H-benzo[d]imidazol-6-ylcarbamoyl)-3,4,5,6-tetrachlorobenzoic acid hydrochloride” for “test compound”, “media. Samples were then doped with 10.0 μM FeSO4 with samples with no test compound to examine effects of 10.0 μM FeSO4 on biofilm formation.” for “media.”
# [1] = system: E. faecium, MRSA and S. epidermidis; experiment: Mitigating effects of iron on biofilm formation inhibition; assay type: cell-based; settings: increasing Fe(II) concentration, 10.0 μM FeSO4, hydrochloride
# Experimental: Next the mechanistic basis of how compound 3 was able to inhibit and disperse bacterial biofilms was investigated. Iron levels are known to effect Gram-positive biofilm development (Deighton, M.; Borland, R. Infection and Immunity 1993, 61, 4473-4479) and were deemed a plausible driver of the observed anti-biofilm activity. To examine Fe(II) related antibiofilm behavior, a dose-dependent study was performed in which the ability of 3 to inhibit biofilm development was measured under increasing Fe(II) concentration. […]
# Inhibition assays were performed by taking an overnight culture of bacterial strain and subculturing it at an OD600 of 0.01 into the necessary media (brain heart infusion for E. faecium, tryptic soy broth with a 0.5% glucose supplement (TSBG) for MRSA, Luria-Bertani (LB) media for MDRAB, Luria-Bertani media without NaCl (LBNS) for PAO1 and tryptic soy broth with a 0.5% glucose supplement and a 3.0% NaCl supplement (TGN) for S. epidermidis. Stock solutions of predetermined concentrations of the 2-(2-amino-1H-benzo[d]imidazol-6-ylcarbamoyl)-3,4,5,6-tetrachlorobenzoic acid hydrochloride were then made in the necessary media. […] Biofilm inhibition was quantitated by measuring the OD540 of each well in which a negative control lane wherein no biofilm was formed served as a background and was subtracted out.
# [2] = system: E. faecium, MRSA and S. epidermidis; experiment: Mitigating effects of zinc on biofilm formation inhibition; assay type: cell-based; settings: for effect of Zn(II) on ability to inhibit biofilm development: 50.0 μM compound, 25.0-200.0 μM ZnCl2, dose-dependent, hydrochloride
# Description: Next, Zn(II) homeostasis was examined. Zn(II) has been implicated in the pathogenesis of Gram-positive bacterial infections and may be an important regulator of biofilm formation (Conrady, D. G.; Brescia, C. C.; Horii, K.; Weiss, A. A.; Hassett, D. J.; Herr, A. B. Proceedings of the National Academy of Sciences of the United States of America 2008, 105, 19456-19461).
# Procedure to Determine the Mitigating Effects of Zinc on E. faecium, MRSA and S. epidermidis Biofilm Formation Inhibition Induced by 2-(2-Amino-1H-Benzo[d]Imidazol-6-Ylcarbamoyl)-3,4,5,6-Tetrachlorobenzoic Acid Hydrochloride:
# as §1, with “50.0 μM 2-(2-amino-1H-benzo[d]imidazol-6-ylcarbamoyl)-3,4,5,6-tetrachlorobenzoic acid hydrochloride” for “predetermined concentrations of the test compound”, “media. Samples were then doped with 25.0, 50.0, 75.0, 100.0, 150.0 and 200.0 μM ZnCl2 with controls in which no test compound was added to examine effects of 200.0 μM ZnCl2 on biofilm formation.” for “media.”
# [3] = 1H NMR binding control experiment with FeSO4; settings: 0, 0.5, or 1.0 equivalents FeSO4
# Experimental: Given this Zn(II)-dependence, the ability of 3 to bind zinc directly was determined to ascertain if the mechanism was potentially occurring via a Zn(II)-binding mechanism. To answer this question, an ^1H NMR binding experiment was performed in which the chemical shifts of 3 were measured in the presence of 0 equivalents, 0.5 equivalents, and 1.0 equivalents ZnCl2. […] As a control, the same experiment was performed with FeSO4.
# [4] = listed as 2-(2-amino-1H-benzo[d]imidazol-6-ylcarbamoyl)-3,4,5,6-tetrachlorobenzoic acid hy
structure (smiles),measurement,setting,value
"Nc1nc2ccc(NC(=O)c3c(Cl)c(Cl)c(Cl)c(Cl)c3C(=O)O)cc2[nH]1 [Compound 3, 2-(2-amino-1H-benzo[d]imidazol-6-ylcarbamoyl)-3,4,5,6-tetrachlorobenzoic acid hydrochloride]",IC50,MRSA,0.86 µM
same,IC50,MRSA; concentration that inhibits 50% biofilm development,0.89 ± 0.01 µM
same,effect of Fe(II) on biofilm inhibitory activity,[1],not affected by increasing Fe(II) concentrations
same,effect of Fe(II) on biofilm inhibitory activity,[1]; [4],no effect on biofilm inhibitory activity
same,effect of Zn(II) on ability to inhibit biofilm development,[2],suppressed the ability of 3 to inhibit biofilm development
same,effect of Zn(II) on ability to inhibit biofilm development,[2]; [4],mitigate the biofilm inhibition response
same,biofilm formation inhibition when supplemented with ZnCl2,[2]; 200 μM ZnCl2,unable to inhibit biofilm formation
same,change in NMR signal with FeSO4,[3],No change
